This assay addresses T1, human alpha 7-wt nAChR (Homo sapiens, UniProt P36544).
T1 construct: expressed in transfected cells
Kind of assay: Ca2+ flux imaging (FDSS) (Protocol B). Particulars: for EC50: potentiation of 100 μM choline, compounds 0.01 μM to 30 μM, read-out: a7-PAM-G_[33]_pEC50 pEC50 (converted); for Emax: efficacy of 100 μM choline defined as 100% in the absence of a PAM, read-out: a7-PAM-G_[33]_Eff_Curve_FI % Efficacy. Type of assay: cell-based. As to the method: Ca^2+ Flux Imaging (FDSS) (Protocol B)
• Hanks buffered saline solution (HBSS, Invitrogen, Belgium), supplemented with 10 mM HEPES (Invitrogen, Belgium), CaCl2 to a final concentration of 5 mM, 0.1% Bovine serum albumin (Sigma-Aldrich NV, Belgium). b) Calcium-Sensitive Dye—Fluo-4AM • Fluo-4AM (Molecular Probes, USA) was dissolved in DMSO containing 10% Pluronic acid (Molecular Probes, USA) to give a stock solution which was diluted in assay buffer supplemented with 5 mM probenicid (Sigma, Aldrich NV, Belgium) to give a final concentration of 2 μM. c) 384-Well Plates • Black-sided, transparent bottomed 384 well plates coated with poly-D-lysine, PDL pre-coated (Corning, Incorporated, USA) d) Calcium Flux Measurement • A Functional drug screening system (FDSS, Hamamatsu) was used to measure intracellular free-calcium flux signals. Method
Monolayers of human alpha 7-wt nAChR-expressing cells were grown in black-sided, transparent bottomed 384 well plates coated with PDL for 24 hours prior to loading with a fluorescent calcium indicator, fluo-4AM for up to 120 minutes.
PAM activity was detected in real time by applying the compounds to be tested to the loaded cells along with an alpha 7 nicotinic receptor agonist during constant monitoring of cellular fluorescence in a FDSS. Compounds giving peak fluorescent responses greater than the response due to agonist alone, were considered to be alpha 7 nAChR PAMs. The alpha 7 nicotinic receptor agonist was choline, applied at a sub-maximal concentration of 100 μM. In a further setting of the present invention the compounds were applied prior to the alpha 7 nicotinic receptor agonist, in a particular 10 minutes prior to the agonist.
A control response to choline was calculated on each plate from the difference in peak in fluorescence in wells receiving either choline or assay buffer alone. Compounds of the present invention were tested at a concentration range from 0.01 μM to 30 μM. Compounds were considered to have an interesting activity when they potentiated the choline signal at least with 200% when tested at a concentration of 30 μM (the efficacy of 100 μM choline was defined as 100% in the absence of a PAM). An EC50 (or pEC50) was determined as a concentration relating to half the maximal effect, when a clear sigmoidal curve with top plateau was obtained.

T1 sequence (P36544 23-502): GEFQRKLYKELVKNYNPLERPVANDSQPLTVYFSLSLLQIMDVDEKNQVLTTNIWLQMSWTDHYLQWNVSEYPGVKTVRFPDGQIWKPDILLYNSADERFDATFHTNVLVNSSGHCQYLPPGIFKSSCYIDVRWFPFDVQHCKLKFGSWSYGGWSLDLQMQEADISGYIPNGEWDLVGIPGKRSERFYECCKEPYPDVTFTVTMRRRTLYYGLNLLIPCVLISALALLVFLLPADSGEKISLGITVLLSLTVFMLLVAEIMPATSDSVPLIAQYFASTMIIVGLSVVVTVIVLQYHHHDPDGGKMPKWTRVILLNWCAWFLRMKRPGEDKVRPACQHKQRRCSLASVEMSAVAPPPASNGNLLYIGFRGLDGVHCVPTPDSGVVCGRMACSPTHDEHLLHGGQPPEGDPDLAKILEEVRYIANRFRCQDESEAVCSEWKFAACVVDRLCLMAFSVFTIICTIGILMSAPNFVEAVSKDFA

For `Cc1cc(-c2sc(N3CC(C)OC(C)C3)nc2CNC(=O)CC2CC2)cc(C)n1` (racemic) [Compound 55, N-[[2-[2,6-dimethyl-4-morpholinyl]-5-(2,6-dimethyl-4-pyridinyl)-4-thiazolyl]methyl]-cyclopropaneacetamide], the EC50 is 794 nM.

Consider `Cc1cc(-c2sc(N3CC(C)OC(C)C3)nc2CNC(=O)c2ccc(F)cc2C)cc(C)n1` (racemic) [Compound 56, N-[[2-[2,6-dimethyl-4-morpholinyl]-5-(2,6-dimethyl-4-pyridinyl)-4-thiazolyl]methyl]-4-fluoro-2-methyl-benzamide], for which the EC50 is 234 nM.

For `Cc1cc(-c2sc(N3CC(C)OC(C)C3)nc2CNC(=O)C2CCC2)cc(C)n1` (racemic) [Compound 57, N-[[2-[2,6-dimethyl-4-morpholinyl]-5-(2,6-dimethyl-4-pyridinyl)-4-thiazolyl]methyl]-cyclobutanecarboxamide], the Emax came to 783% and the EC50 is 692 nM.

For the molecule `CCCC(=O)NCc1nc(N2CC(C)OC(C)C2)sc1-c1cc(C)nc(C)c1` (racemic) [Compound 61, N-[[2-[2,6-dimethyl-4-morpholinyl]-5-(2,6-dimethyl-4-pyridinyl)-4-thiazolyl]methyl]-butanamide], the EC50 is 977 nM.

For the molecule `Cc1cc(-c2sc(N3CC(C)OC(C)C3)nc2CNC(=O)c2conc2C)cc(C)n1` (racemic) [Compound 68, N-[[2-[2,6-dimethyl-4-morpholinyl]-5-(2,6-dimethyl-4-pyridinyl)-4-thiazolyl]methyl]-3-methyl-4-isoxazolecarboxamide], the EC50 was 912 nM.

Take `Cc1cc(-c2sc(N3C[C@@H](C)O[C@@H](C)C3)nc2CNC(=O)c2ccccc2F)cc(C)n1` [Compound 6, N-[[2-[(2R,6S)-2,6-dimethyl-4-morpholinyl]-5-(2,6-dimethyl-4-pyridinyl)-4-thiazolyl]methyl]-2-fluoro-benzamide]: the Emax amounted to 313%.

As for `Cc1cc(-c2sc(N3C[C@@H](C)O[C@@H](C)C3)nc2CNC(=O)C2CCCC2)cc(C)n1` [Compound 16, N-[[2-[(2R,6S)-2,6-dimethyl-4-morpholinyl]-5-(2,6-dimethyl-4-pyridinyl)-4-thiazolyl]methyl]-cyclopentanecarboxamide], the Emax was found to be 651% and the EC50 is 22.4 nM.

For `Cc1cc(-c2sc(N3C[C@@H](C)O[C@@H](C)C3)nc2CNC(=O)c2nc(C)oc2C(F)(F)F)cc(C)n1` [Compound 20, N-[[2-[(2R,6S)-2,6-dimethyl-4-morpholinyl]-5-(2,6-dimethyl-4-pyridinyl)-4-thiazolyl]methyl]-2-methyl-5-(trifluoromethyl)-4-oxazolecarboxamide], the Emax was 253% and the EC50 is 1740 nM.

With `Cc1ccc(C(=O)NCc2nc(N3C[C@@H](C)O[C@@H](C)C3)sc2-c2cc(C)nc(C)c2)c(C)c1` [Compound 21, N-[[2-[(2R,6S)-2,6-dimethyl-4-morpholinyl]-5-(2,6-dimethyl-4-pyridinyl)-4-thiazolyl]methyl]-2,4-dimethyl-benzamide], the Emax was found to be 572% and the EC50 is 72.4 nM.

On to `Cc1cc(-c2sc(N3C[C@@H](C)O[C@@H](C)C3)nc2CNC(=O)c2ccc(Cl)cc2C)cc(C)n1` [Compound 22, 4-chloro-N-[[2-[(2R,6S)-2,6-dimethyl-4-morpholinyl]-5-(2,6-dimethyl-4-pyridinyl)-4-thiazolyl]methyl]-2-methyl-benzamide], for which the Emax was 484% and the EC50 is 20 nM.

For `Cc1cc(-c2sc(N3C[C@@H](C)O[C@@H](C)C3)nc2CNC(=O)c2cccc(Cl)c2Cl)cc(C)n1` [Compound 26, 2,3-dichloro-N-[[2-[(2R,6S)-2,6-dimethyl-4-morpholinyl]-5-(2,6-dimethyl-4-pyridinyl)-4-thiazolyl]methyl]-benzamide], the Emax is 631% and the EC50 is 141 nM.

Consider `Cc1cc(-c2sc(N3C[C@@H](C)O[C@@H](C)C3)nc2CNC(=O)c2ccccc2)cc(C)n1` [Compound 27, N-[[2-[(2R,6S)-2,6-dimethyl-4-morpholinyl]-5-(2,6-dimethyl-4-pyridinyl)-4-thiazolyl]methyl]-benzamide], for which the Emax came out at 403% and the EC50 is 525 nM.

Turning to `Cc1cc(-c2sc(N3C[C@@H](C)O[C@@H](C)C3)nc2CNC(=O)[C@H]2CCOC2)cc(C)n1` [Compound 28, (3S)-N-[[2-[(2R,6S)-2,6-dimethyl-4-morpholinyl]-5-(2,6-dimethyl-4-pyridinyl)-4-thiazolyl]methyl]tetrahydro-3-furancarboxamide], the Emax is 409% and the EC50 is 447 nM.

For `Cc1cc(-c2sc(N3C[C@@H](C)O[C@@H](C)C3)nc2CNC(=O)c2sc(C)nc2C)cc(C)n1` [Compound 29, N-[[2-[(2R,6S)-2,6-dimethyl-4-morpholinyl]-5-(2,6-dimethyl-4-pyridinyl)-4-thiazolyl]methyl]-2,4-dimethyl-5-thiazolecarboxamide], the Emax came out at 593%.

As to `COc1ccc(C(=O)NCc2nc(N3C[C@@H](C)O[C@@H](C)C3)sc2-c2cc(C)nc(C)c2)cc1` [Compound 30, N-[[2-[(2R,6S)-2,6-dimethyl-4-morpholinyl]-5-(2,6-dimethyl-4-pyridinyl)-4-thiazolyl]methyl]-4-methoxy-benzamide], the Emax is 551% and the EC50 is 513 nM.

On to `Cc1cc(-c2sc(N3C[C@@H](C)O[C@@H](C)C3)nc2CNC(=O)c2coc(C)n2)cc(C)n1` [Compound 31, N-[[2-[(2R,6S)-2,6-dimethyl-4-morpholinyl]-5-(2,6-dimethyl-4-pyridinyl)-4-thiazolyl]methyl]-2-methyl-4-oxazolecarboxamide], for which the Emax turned out to be 495%.

Turning to `Cc1cc(-c2sc(N3C[C@@H](C)O[C@@H](C)C3)nc2CNC(=O)c2ccc(F)c(C(F)(F)F)c2)cc(C)n1` [Compound 33, N-[[2-[(2R,6S)-2,6-dimethyl-4-morpholinyl]-5-(2,6-dimethyl-4-pyridinyl)-4-thiazolyl]methyl]-4-fluoro-3-(trifluoromethyl)-benzamide], the Emax was determined as 519% and the EC50 is 275 nM.

Take `Cc1cc(-c2sc(N3C[C@@H](C)O[C@@H](C)C3)nc2CNC(=O)C2(C)CC2)cc(C)n1` [Compound 34, N-[[2-[(2R,6S)-2,6-dimethyl-4-morpholinyl]-5-(2,6-dimethyl-4-pyridinyl)-4-thiazolyl]methyl]-1-methyl-cyclopropanecarboxamide]: the Emax was 237%.

With `Cc1cc(-c2sc(N3C[C@@H](C)O[C@@H](C)C3)nc2CNC(=O)C(C)(C)C)cc(C)n1` [Compound 47, N-[[2-[(2R,6S)-2,6-dimethyl-4-morpholinyl]-5-(2,6-dimethyl-4-pyridinyl)-4-thiazolyl]methyl]-2,2-dimethyl-propanamide], the Emax came out at 247%.

As for `Cc1cc(-c2sc(N3C[C@@H](C)O[C@@H](C)C3)nc2CNC(=O)CCC(C)C)cc(C)n1` [Compound 51, N-[[2-[(2R,6S)-2,6-dimethyl-4-morpholinyl]-5-(2,6-dimethyl-4-pyridinyl)-4-thiazolyl]methyl]-4-methyl-pentanamide], the Emax is 960% and the EC50 is 60.3 nM.

Consider `Cc1cc(-c2sc(N3C[C@@H](C)O[C@@H](C)C3)nc2CNC(=O)[C@@H]2CCCN2C)cc(C)n1` [Compound 52, (2S)-N-[[2-[(2R,6S)-2,6-dimethyl-4-morpholinyl]-5-(2,6-dimethyl-4-pyridinyl)-4-thiazolyl]methyl]-1-methyl-2-pyrrolidinecarboxamide], for which the Emax came to 582% and the EC50 was 6170 nM.

For the molecule `COCCC(=O)NCc1nc(N2C[C@@H](C)O[C@@H](C)C2)sc1-c1cc(C)nc(C)c1` [Compound 53, N-[[2-[(2R,6S)-2,6-dimethyl-4-morpholinyl]-5-(2,6-dimethyl-4-pyridinyl)-4-thiazolyl]methyl]-3-methoxy-propanamide], the EC50 was 2820 nM.

In the case of `Cc1cc(-c2sc(N3C[C@@H](C)O[C@@H](C)C3)nc2CNC(=O)c2cc(C(C)(C)C)nn2C)cc(C)n1` [Compound 54, 3-(1,1-dimethylethyl)-N-[[2-[(2R,6S)-2,6-dimethyl-4-morpholinyl]-5-(2,6-dimethyl-4-pyridinyl)-4-thiazolyl]methyl]-1-methyl-1H-pyrazole-5-carboxamide], the EC50 is 646 nM.

With `CC(=O)NCc1nc(N2C[C@@H](C)O[C@@H](C)C2)sc1-c1cc(C)nc(C)c1` [Compound 60, N-[[2-[(2R,6S)-2,6-dimethyl-4-morpholinyl]-5-(2,6-dimethyl-4-pyridinyl)-4-thiazolyl]methyl]-acetamide], the Emax was 495%.
